Our source for the IC50 and Activity values is ChEMBL document CHEMBL5634092, “Design, synthesis, and biological evaluation of novel HDAC/CD13 dual inhibitors for the treatment of cancer” (Eur J Med Chem, 2023).

The target of series [1] is T1, Aminopeptidase N (Sus scrofa, UniProt P15145).
T1 sequence (P15145 whole entry): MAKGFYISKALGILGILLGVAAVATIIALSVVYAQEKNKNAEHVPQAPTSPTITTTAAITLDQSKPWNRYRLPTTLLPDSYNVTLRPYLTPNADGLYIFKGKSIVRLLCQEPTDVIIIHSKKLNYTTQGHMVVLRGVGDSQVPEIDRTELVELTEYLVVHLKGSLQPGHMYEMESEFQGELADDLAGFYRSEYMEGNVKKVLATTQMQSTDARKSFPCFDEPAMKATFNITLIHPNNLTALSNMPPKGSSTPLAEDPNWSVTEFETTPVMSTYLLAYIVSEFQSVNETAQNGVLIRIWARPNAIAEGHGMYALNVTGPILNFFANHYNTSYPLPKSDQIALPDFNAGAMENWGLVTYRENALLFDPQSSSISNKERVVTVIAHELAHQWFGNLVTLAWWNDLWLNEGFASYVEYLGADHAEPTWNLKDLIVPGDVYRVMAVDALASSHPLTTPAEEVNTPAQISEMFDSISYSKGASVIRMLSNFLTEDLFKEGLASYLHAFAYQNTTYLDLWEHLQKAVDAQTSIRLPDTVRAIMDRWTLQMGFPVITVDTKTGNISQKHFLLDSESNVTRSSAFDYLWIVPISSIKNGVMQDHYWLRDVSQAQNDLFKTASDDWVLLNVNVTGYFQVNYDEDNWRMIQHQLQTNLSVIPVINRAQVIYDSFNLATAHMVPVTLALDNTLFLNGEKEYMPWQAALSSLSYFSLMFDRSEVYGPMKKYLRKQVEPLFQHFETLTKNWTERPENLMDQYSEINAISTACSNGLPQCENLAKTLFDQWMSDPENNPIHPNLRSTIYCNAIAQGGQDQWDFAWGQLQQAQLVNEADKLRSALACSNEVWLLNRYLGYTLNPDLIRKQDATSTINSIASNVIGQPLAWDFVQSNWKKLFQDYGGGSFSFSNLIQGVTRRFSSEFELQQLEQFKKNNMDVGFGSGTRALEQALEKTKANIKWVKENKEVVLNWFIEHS
The series can be described thus: Inhibition of porcine kidney CD13 using L-leucine-p-nitroanilide as substrate incubated for 30 mins by microplate reader analysis.

Another series has as its target Histone deacetylase 3 (Homo sapiens, UniProt O15379). Put plainly: Inhibition of human HDAC3 using Boc-Lys (acetyl)-AMC as substrate incubated for 1 hr followed by substrate addition and further incubated for 2 hrs by fluorescence assay.
For another series, the target named is Histone deacetylase 2 (Homo sapiens, UniProt Q92769). Put plainly: Inhibition of human HDAC2 using Boc-Lys (acetyl)-AMC as substrate incubated for 1 hr followed by substrate addition and further incubated for 2 hrs by fluorescence assay.
Series [2] relates to MV4-11. The series can be described thus: Antiproliferative activity against human MV4-11 cells incubated for 48 hrs by resazurin based microplate reader analysis. As to conditions: MV4-11, 48 h.
The target of a further series is Histone deacetylase 1 (Homo sapiens, UniProt Q13547). The series can be described thus: Inhibition of human HDAC1 using Boc-Lys (acetyl)-AMC as substrate incubated for 1 hr followed by substrate addition and further incubated for 2 hrs by fluorescence assay.
The target of series [3] is Aminopeptidase N (Homo sapiens, UniProt P15144). Put plainly: Inhibition of human CD13 using L-leucine-p-nitroanilide as substrate incubated for 30 mins by microplate reader analysis.
The subject of another series is JeKo-1. Put plainly: Antiproliferative activity against human JeKo-1 cells incubated for 48 hrs by resazurin based microplate reader analysis. Conditions: JeKo-1, 48 h.
For the next series, the system named is HL-60. The series can be described thus: Antiproliferative activity against human HL-60 cells incubated for 48 hrs by resazurin based microplate reader analysis. As to conditions: HL-60, 48 h.
The subject of a further series is BXPC-3. Put plainly: Antiproliferative activity against human BXPC-3 cells incubated for 48 hrs by resazurin based microplate reader analysis. As to conditions: BXPC-3, 48 h.
Series [4] concerns MV4-11. The series can be described thus: Induction of apoptosis in human MV4-11 cells assessed as apoptotic rate at 2 uM incubated for 24 hrs by Annexin V-FITC staining based flow cytometry (reference value: 24.09 %). The class given is functional.
The test system of another series is K562. Put plainly: Antiproliferative activity against human K562 cells incubated for 48 hrs by resazurin based microplate reader analysis. As to conditions: K562, 48 h.
The nature of series [5]: Cytotoxicity against human HL7702 cells incubated for 48 hrs by resazurin based microplate reader analysis. As to conditions: HL7702 (L02) cells.
Series [6] has as its system A549. The series can be described thus: Antiproliferative activity against human A549 cells incubated for 48 hrs by resazurin based microplate reader analysis. As to conditions: A549, 48 h.
In series [7] the test system is A549. Put plainly: Induction of apoptosis in human A549 cells assessed as apoptotic rate at 20 uM incubated for 24 hrs by Annexin V-FITC staining based flow cytometry (reference value: 8.02 %). The class given is functional.
Series [8] has as its target T2, Protein deacetylase HDAC6 (Homo sapiens, UniProt Q9UBN7).
T2 sequence (Q9UBN7 whole entry): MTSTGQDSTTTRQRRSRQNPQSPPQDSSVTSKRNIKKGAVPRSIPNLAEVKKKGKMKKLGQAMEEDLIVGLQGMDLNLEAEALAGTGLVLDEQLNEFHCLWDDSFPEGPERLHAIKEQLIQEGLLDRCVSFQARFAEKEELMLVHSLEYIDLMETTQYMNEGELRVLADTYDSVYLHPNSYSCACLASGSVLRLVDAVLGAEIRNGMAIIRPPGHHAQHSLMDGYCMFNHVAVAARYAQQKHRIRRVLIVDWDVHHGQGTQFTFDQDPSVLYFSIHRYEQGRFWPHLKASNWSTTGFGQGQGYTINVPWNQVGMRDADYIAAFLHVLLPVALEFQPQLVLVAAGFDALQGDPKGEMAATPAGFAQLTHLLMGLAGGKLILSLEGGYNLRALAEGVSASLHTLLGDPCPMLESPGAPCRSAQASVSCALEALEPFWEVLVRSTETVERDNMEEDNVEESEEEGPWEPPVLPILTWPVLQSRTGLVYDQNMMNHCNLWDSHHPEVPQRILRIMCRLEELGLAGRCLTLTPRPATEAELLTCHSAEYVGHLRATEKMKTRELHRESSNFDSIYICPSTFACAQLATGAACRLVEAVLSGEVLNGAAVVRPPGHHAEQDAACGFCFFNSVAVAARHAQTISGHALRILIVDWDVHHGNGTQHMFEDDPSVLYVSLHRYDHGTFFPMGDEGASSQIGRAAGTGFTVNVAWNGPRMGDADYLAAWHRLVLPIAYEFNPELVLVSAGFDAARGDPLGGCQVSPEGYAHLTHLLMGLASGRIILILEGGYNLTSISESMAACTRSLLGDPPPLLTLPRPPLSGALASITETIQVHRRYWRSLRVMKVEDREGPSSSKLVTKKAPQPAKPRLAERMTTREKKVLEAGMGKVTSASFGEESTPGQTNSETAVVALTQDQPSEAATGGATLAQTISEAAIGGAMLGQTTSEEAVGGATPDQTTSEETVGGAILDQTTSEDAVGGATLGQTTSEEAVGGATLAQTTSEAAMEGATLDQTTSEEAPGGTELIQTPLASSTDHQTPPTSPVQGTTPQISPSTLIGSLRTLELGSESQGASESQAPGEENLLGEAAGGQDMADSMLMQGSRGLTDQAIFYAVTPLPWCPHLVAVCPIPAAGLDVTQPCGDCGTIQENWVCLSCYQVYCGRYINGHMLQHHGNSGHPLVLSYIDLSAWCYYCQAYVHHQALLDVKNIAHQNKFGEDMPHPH
The series can be described thus: Inhibition of human HDAC6 using Boc-Lys (acetyl)-AMC as substrate incubated for 1 hr followed by substrate addition and further incubated for 2 hrs by fluorescence assay.

The next series concerns the target T3, Histone deacetylase 8 (Homo sapiens, UniProt Q9BY41).
T3 sequence (Q9BY41 whole entry): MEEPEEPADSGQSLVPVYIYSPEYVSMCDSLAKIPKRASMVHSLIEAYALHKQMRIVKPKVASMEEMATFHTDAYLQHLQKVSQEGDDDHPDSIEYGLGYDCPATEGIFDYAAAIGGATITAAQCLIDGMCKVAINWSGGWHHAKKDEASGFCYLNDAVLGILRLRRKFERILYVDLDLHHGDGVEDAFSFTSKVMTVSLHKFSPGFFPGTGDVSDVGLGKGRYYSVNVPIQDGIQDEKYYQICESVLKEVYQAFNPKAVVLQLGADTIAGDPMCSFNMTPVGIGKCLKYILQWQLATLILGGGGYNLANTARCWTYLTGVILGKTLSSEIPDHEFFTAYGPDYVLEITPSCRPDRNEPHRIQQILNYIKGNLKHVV
The series can be described thus: Inhibition of human HDAC8 using Boc-Lys (tri-fluoroacetyl)-AMC as substrate incubated for 1 hr followed by substrate addition and further incubated for 2 hrs by fluorescence assay.

Sequence of Histone deacetylase 3 (O15379 whole entry): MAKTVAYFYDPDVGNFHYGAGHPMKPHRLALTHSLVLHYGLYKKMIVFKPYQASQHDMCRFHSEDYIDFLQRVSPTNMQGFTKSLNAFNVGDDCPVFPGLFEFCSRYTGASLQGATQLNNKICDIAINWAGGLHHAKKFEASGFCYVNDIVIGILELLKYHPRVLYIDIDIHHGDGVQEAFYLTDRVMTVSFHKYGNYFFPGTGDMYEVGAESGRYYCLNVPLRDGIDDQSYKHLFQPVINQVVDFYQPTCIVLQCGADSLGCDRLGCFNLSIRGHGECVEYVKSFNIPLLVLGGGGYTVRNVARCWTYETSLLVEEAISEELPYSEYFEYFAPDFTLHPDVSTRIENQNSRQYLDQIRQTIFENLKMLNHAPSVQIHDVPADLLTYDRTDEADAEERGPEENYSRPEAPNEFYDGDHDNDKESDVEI
Sequence of Histone deacetylase 1 (Q13547 whole entry): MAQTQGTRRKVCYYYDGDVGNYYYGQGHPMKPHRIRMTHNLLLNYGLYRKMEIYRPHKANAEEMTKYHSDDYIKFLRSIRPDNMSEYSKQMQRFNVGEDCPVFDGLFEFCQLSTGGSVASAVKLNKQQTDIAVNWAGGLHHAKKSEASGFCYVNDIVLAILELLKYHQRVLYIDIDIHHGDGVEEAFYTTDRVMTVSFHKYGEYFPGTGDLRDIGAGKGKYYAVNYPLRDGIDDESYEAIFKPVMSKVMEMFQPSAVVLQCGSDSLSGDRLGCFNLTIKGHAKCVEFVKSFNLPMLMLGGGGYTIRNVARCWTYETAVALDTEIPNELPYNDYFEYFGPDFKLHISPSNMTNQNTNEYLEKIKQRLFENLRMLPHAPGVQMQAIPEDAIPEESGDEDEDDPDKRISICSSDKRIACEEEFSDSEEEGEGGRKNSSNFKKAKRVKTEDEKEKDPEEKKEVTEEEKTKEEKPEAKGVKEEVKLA
Sequence of Histone deacetylase 2 (Q92769 whole entry): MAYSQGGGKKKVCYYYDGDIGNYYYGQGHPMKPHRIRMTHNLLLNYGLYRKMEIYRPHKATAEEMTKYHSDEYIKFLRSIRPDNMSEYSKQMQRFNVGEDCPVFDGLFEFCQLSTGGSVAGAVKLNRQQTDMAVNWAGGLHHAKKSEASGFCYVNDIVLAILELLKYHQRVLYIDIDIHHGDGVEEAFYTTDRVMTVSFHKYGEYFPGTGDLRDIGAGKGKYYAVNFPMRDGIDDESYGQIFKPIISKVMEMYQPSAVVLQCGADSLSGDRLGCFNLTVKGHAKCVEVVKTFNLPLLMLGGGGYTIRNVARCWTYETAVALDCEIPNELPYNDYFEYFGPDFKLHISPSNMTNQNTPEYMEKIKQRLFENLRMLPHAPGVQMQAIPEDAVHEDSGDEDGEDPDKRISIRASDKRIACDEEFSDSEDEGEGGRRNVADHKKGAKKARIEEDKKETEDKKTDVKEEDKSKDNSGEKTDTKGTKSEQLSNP
Sequence of Aminopeptidase N (Homo sapiens, UniProt P15144) (P15144 whole entry): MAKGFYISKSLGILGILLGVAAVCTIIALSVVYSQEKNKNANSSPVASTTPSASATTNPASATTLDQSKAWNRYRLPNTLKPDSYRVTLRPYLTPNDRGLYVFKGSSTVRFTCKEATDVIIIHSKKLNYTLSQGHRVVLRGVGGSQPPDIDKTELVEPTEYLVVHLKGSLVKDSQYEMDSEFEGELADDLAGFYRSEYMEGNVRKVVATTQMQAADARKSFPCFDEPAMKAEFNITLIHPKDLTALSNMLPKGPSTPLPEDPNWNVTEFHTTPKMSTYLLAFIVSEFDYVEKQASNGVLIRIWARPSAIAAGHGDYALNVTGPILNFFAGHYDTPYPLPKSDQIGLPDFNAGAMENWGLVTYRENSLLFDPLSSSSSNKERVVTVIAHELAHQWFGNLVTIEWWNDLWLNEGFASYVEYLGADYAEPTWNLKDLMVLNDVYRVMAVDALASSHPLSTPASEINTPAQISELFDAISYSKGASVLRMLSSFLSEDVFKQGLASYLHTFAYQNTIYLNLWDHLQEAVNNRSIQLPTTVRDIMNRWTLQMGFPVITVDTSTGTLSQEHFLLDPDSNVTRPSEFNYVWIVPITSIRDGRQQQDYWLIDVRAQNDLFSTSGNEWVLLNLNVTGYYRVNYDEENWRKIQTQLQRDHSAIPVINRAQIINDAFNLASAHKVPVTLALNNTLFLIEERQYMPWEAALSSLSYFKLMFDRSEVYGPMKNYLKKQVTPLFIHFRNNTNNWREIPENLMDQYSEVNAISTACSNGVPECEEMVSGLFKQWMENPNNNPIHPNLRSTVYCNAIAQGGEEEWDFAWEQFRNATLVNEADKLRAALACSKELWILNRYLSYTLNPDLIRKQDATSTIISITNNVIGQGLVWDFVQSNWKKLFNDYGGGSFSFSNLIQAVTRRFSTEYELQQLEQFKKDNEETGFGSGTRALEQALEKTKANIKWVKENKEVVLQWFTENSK

Take `CCCNNC(=O)CCCCCNC(=O)[C@H](CC(C)C)NC(=O)[C@@H](O)[C@H](N)Cc1ccccc1`: the IC50 was found to be 3.03 µM against Aminopeptidase N [1] and 0.09 µM at Histone deacetylase 3.
Take `CCCNNC(=O)[C@H](CC(C)C)NC(=O)[C@@H](O)[C@H](N)Cc1ccccc1`: the 50% inhibitory concentration (IC50) against Histone deacetylase 2 was greater than 10 µM; at Aminopeptidase N [1] it was 18.2 µM; against Histone deacetylase 3, greater than 10 µM; in the series on MV4-11 [2], greater than 20 µM; on Histone deacetylase 1, greater than 10 µM.
On to `CCCNNC(=O)c1ccc(CNC(=O)[C@H](CC(C)C)NC(=O)[C@H](O)[C@@H](N)Cc2ccccc2)cc1`, for which the half-inhibitory concentration (IC50) is greater than 20 µM at Aminopeptidase N [3], greater than 20 µM against Aminopeptidase N [1] and 0.06 µM against Histone deacetylase 3.
As to `CCCNNC(=O)c1ccc(CNC(=O)[C@H](CC(C)C)NC(=O)NCc2cccc3ccccc23)cc1`, the concentration for half-maximal inhibition (IC50) against Aminopeptidase N [1] was greater than 20 µM; against Histone deacetylase 3, 0.12 µM.
Take `COC(=O)c1ccc(CNC(=O)[C@H](CC(C)C)NC(=O)[C@@H](O)[C@H](N)Cc2ccccc2)cc1.Cl`: the IC50 against Aminopeptidase N [3] is 0.48 µM; with JeKo-1, greater than 20 µM; at Histone deacetylase 2 it was greater than 10 µM; in the series on HL-60, greater than 20 µM; in the series with BXPC-3, greater than 20 µM; with K562 it was greater than 20 µM. Also, the IC50 against Aminopeptidase N [1] is 1.35 µM; against Histone deacetylase 3, 2.42 µM; in the series on A549 [6], greater than 20 µM; in the series on MV4-11 [2], greater than 20 µM; on Histone deacetylase 1, greater than 10 µM. Moreover, the Activity is 33.7% in the series on MV4-11 [4] and 8.31% in the series on A549 [7]. In addition, the IC50 at 48 h in series [5] was greater than 100 µM.
`CCCNNC(=O)c1ccc(CNC(=O)[C@H](CC(C)C)NC(=O)[C@@H](NC(=O)[C@@H](O)[C@H](N)Cc2ccccc2)[C@@H](C)CC)cc1`: the IC50 at Aminopeptidase N [1] is 0.4 µM; on Histone deacetylase 3 it was 0.08 µM.
As to `CC(C)C[C@H](NC(=O)[C@@H](O)[C@H](N)Cc1ccccc1)C(=O)NCc1ccc(C(=O)NO)cc1`, the IC50 in series [8] amounted to 0.33 µM; on Histone deacetylase 8, 1.35 µM; against Aminopeptidase N [1], 0.55 µM; against Histone deacetylase 3, 1.43 µM.
With `CCCNNC(=O)c1ccc(CNC(=O)[C@H](CC(C)C)NC(=O)Nc2c(C)cccc2C)cc1`, the concentration for half-maximal inhibition (IC50) was greater than 20 µM at Aminopeptidase N [1] and 0.29 µM on Histone deacetylase 3.
Consider `CC(C)C[C@H](NC(=O)[C@@H](O)[C@H](N)Cc1ccccc1)C(=O)NCc1ccc(C(=O)Nc2ccccc2N)cc1`, for which the results for the IC50 on Aminopeptidase N [1] and against Histone deacetylase 3 were 1.63 µM and 0.06 µM, respectively.
The like results for `CCCNNC(=O)CCCCCCNC(=O)[C@H](CC(C)C)NC(=O)[C@@H](O)[C@H](N)Cc1ccccc1` were, in that order, 9.53 µM and 0.05 µM.
For the compound `CCCNNC(=O)c1ccc(CNC(=O)[C@H]2CCCN2C(=O)[C@H](CC(C)C)NC(=O)[C@@H](O)[C@H](N)Cc2ccccc2)cc1`, the IC50 against Aminopeptidase N [1] turned out to be 2.69 µM. In other words, the single-digit micromolar range.
Turning to `CC(C)C[C@H](NC(=O)[C@@H](O)[C@H](N)Cc1ccccc1)C(=O)O` [UBENIMEX], the IC50 is greater than 10 µM at Histone deacetylase 2, greater than 10 µM on Histone deacetylase 3, greater than 20 µM with MV4-11 [2] and greater than 10 µM at Histone deacetylase 1.
In turn, `O=C(CCCCCCC(=O)Nc1ccccc1)NO` [VORINOSTAT] gave a 50% inhibitory concentration (IC50) at Aminopeptidase N [1] greater than 20 µM.
